Measurements reported in patent publication EP4782450A1, “NOVEL SKELETAL DERIVATIVE EFFECTIVE FOR HER2 MUTATION, AND PHARMACEUTICAL COMPOSITION COMPRISING SAME” (Hanmi Pharm. Co., Ltd., priority 2023, dated 2025).
Where two headings read alike, the source gives them in different places.

Tests used:
[1] = tested on: Ba/F3 HER2 A775insYVMA; assay: Growth inhibition of Ba/F3 cells engineered to overexpress HER2 A775_G776insYVMA (CellTiter-Glo luminescence); format: cell-based; settings: concentrations 1000 to 0.32 nM, read-out: Ba/F3 HER2^YVMA GI50 class
Outline: (§1)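 Ba/F3 cells overexpressing HER2 A775_G776insYVMA (1000–0.32 nM) or wild-type EGFR (10000–8 nM) treated 72 h at 37°C in RPMI/10% FBS. Viability by CellTiter-Glo luminescence; GI50 by nonlinear regression with untreated growth set at 100%.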

[2] = tested on: wild-type EGFR overexpressing Ba/F3 cells; assay: Growth inhibition of Ba/F3 cells engineered to overexpress wild-type EGFR (CellTiter-Glo luminescence); format: cell-based; settings: concentrations 10000 to 8 nM, read-out: Ba/F3 EGFR^WT GI50 class
Outline: as §1

| Molecule | GI50 ([1]; Mus musculus, BaF3, 72 hours) [nM] | GI50 ([2]; Mus musculus, BaF3, 72 hours) [nM] | GI50 ([1]; 72 hours) [nM] | GI50 ([2]; 72 hours) [nM] |
| --- | --- | --- | --- | --- |
| C=CC(=O)N1CCCC[C@H]1C#Cc1ccc2ncnc(Nc3ccc(Oc4ccc5c(c4)ncn5C)c(C)c3)c2n1 [Example 89, (S)-1-(2-((4-((3-methyl-4-((1-methyl-1H-benzo[d]imidazol-5-yl)oxy)phenyl)amino)pyrido[3,2-d]pyrimidin-6-yl)ethynyl)piperidin-1-yl)prop-2-en-1-one] | < 100 | 1000 to 5000 |  |  |
| C=CC(=O)N1CCC[C@@H]1C#Cc1ncc2ncnc(Nc3ccc(OC4=CC5N=CN(C)C5C=C4)c(C)c3)c2n1 (stereo partly drawn) [Example 90, 1-((2R)-2-((8-((3-methyl-4-((1-methyl-3a,7a-dihydro-1H-benzo[d]imidazol-5-yl)oxy)phenyl)amino)pyrimido[5,4-d]pyrimidin-2-yl)ethynyl)pyrrolidin-1-yl)prop-2-en-1-one] | < 100 | < 100 |  |  |
| C=CC(=O)N1CCCC[C@@H]1C#Cc1ncc2ncnc(Nc3ccc(Oc4ccc5c(c4)ncn5C)c(C)c3)c2n1 [Example 91, (R)-1-(2-((8-((3-methyl-4-((1-methyl-1H-benzo[d]imidazol-5-yl)oxy)phenyl)amino)pyrimido[5,4-d]pyrimidin-2-yl)ethynyl)piperidin-1-yl)prop-2-en-1-one] | 100 to 1000 | 100 to 1000 |  |  |
| C=CC(=O)N1CCCC[C@H]1C#Cc1ncc2ncnc(Nc3ccc(Oc4ccc5c(c4)ncn5C)c(C)c3)c2n1 [Example 92, (S)-1-(2-((8-((3-methyl-4-((1-methyl-1H-benzo[d]imidazol-5-yl)oxy)phenyl)amino)pyrimido[5,4-d]pyrimidin-2-yl)ethynyl)piperidin-1-yl)prop-2-en-1-one] | 100 to 1000 | 100 to 1000 |  |  |
| (S)-1-(2-((4-((3-methyl-4-((1-methyl-1H-benzo[d]imidazol-5-yl)oxy)phenyl)amino)pyrido[3,2-d]pyrimidin-6-yl)ethynyl)pyrrolidin-1-yl)prop-2-en-1-one [Example 87] |  |  | < 100 | 1000 to 5000 |
| N-(2-((4-((4-([1,2,4]triazolo[1,5-a]pyridin-7-yloxy)-3-methylphenyl)amino)pyrido[3,2-d]pyrimidin-6-yl)amino)ethyl)-N-methylacrylamide [Example 11] |  |  | 100 to 1000 | 1000 to 5000 |
| N-(2-((8-((4-([1,2,4]triazolo[1,5-a]pyridin-7-yloxy)-3-methylphenyl)amino)pyrimido[5,4-d]pyrimidin-2-yl)oxy)ethyl)-N-methylacrylamide [Example 4] |  |  | 1000 to 5000 | 1000 to 5000 |
| N-methyl-N-(2-((8-((3-methyl-4-((1-methyl-1H-benzo[d]imidazol-5-yl)oxy)phenyl)amino)pyrimido[5,4-d]pyrimidin-2-yl)amino)ethyl)acrylamide [Example 16] |  |  | 100 to 1000 | > 5000 |
